Patent US20240390251A1, “SKIN CARE COMPOSITION AND USE THEREOF, AND SKIN CARE COMPOSITION RAW MATERIAL” (YAMASA CORPORATION, priority 2021, published 2024)

Legend:
IL-8 [1] = experiment: Anti-inflammatory evaluation using UVB-irradiated normal human keratinocytes, IL-8 by ELISA; type: cell-based; conditions: NHEK, FIG. 3; for concentration dependence of the inhibitory effect on IL-8 / amount of IL-8 produced: UVB 20 mJ/cm^2, sample 0.4 and 0.8 mg/mL; for amount of IL-8 produced: culture supernatant
Method: (§1) The effects of using various nucleotides on photoaging of the skin were evaluated using normal human keratinocytes. The effects of various nucleotides on inflammatory cytokines induced by UV irradiation of normal human keratinocytes were evaluated. Known inflammatory cytokines IL-1α, IL-6, and IL-8 were used as the inflammatory cytokines to be evaluated. Normal human keratinocytes (NHEK; manufactured by Kurabo Industries, Ltd.) were seeded in a 96-well plate at a density of 2.5×10^4 cells/well and cultured at 37° C. for 24 hours. The medium was replaced with 100 μL of sample-containing medium (HuMedia-KG2; manufactured by Kurabo Industries, Ltd.) and cultured for 24 hours. After removing the sample-containing medium, the plate was washed with 100 μL of Hanks balanced salt solution (HBSS (-)) and irradiated with 20 mJ/cm^2 using a UVB lamp (T[…]/12RS; manufactured by PHILIPS). After washing with HBSS (-), the medium was replaced with 100 μL of fresh medium and cultured for 24 hours. After culturing, the culture supernatant was collected. The sample solutions used were 0.8 (mg/mL) of UMP,2Na 0.4, 0.8 (mg/mL) of CMP,2Na 0.4, 0.8 (mg/mL) of U:C=1:1 (mass ratio 1:1 mixture of UMP,2Na and CMP,2Na) 0.4, 0.8 (mg/mL) of U:C=4:1 (mass ratio 4:1 mixture of UMP,2Na and CMP,2Na) 0.4, and 0.8 (mg/mL) of U:C=1:4 (mass ratio 1:4 mixture of UMP,2Na and CMP,2Na) 0.4. The culture supernatant of human keratinocytes was collected, and amounts of IL-1α, IL-6, and IL-8 were quantified by ELISA.

IL-6 [2] = experiment: Anti-inflammatory evaluation using UVB-irradiated normal human keratinocytes, IL-6 by ELISA; type: cell-based; conditions: NHEK, FIG. 2; for concentration dependence of the inhibitory effect on IL-6 / amount of IL-6 produced: UVB 20 mJ/cm^2, sample 0.4 and 0.8 mg/mL; for amount of IL-6 produced: culture supernatant
Method: as §1

IL-1α [3] = experiment: Anti-inflammatory evaluation using UVB-irradiated normal human keratinocytes, IL-1α by ELISA; type: cell-based; conditions: NHEK, UVB 20 mJ/cm^2, sample 0.4 and 0.8 mg/mL, FIG. 1; for amount of IL-1α produced: culture supernatant
Method: as §1

[4] = system: inflammatory cytokine production; experiment: Anti-inflammatory evaluation of purine nucleotides in a similar experimental system; type: cell-based, human; conditions: similar experimental system to Example 1
Method: Normal human keratinocytes (NHEK; manufactured by Kurabo Industries, Ltd.) were seeded in a 96-well plate at a density of 2.5×10^4 cells/well and cultured at 37° C. for 24 hours. The medium was replaced with 100 μL of sample-containing medium (HuMedia-KG2; manufactured by Kurabo Industries, Ltd.) and cultured for 24 hours. After removing the sample-containing medium, the plate was washed with 100 μL of Hanks balanced salt solution (HBSS (−)) and irradiated with 20 mJ/cm^2 using a UVB lamp (TL20W/12RS; manufactured by PHILIPS). After washing with HBSS (−), the medium was replaced with 100 μL of fresh medium and cultured for 24 hours. After culturing, the culture supernatant was collected. The sample solutions used were 0.8 (mg/mL) of UMP,2Na 0.4, 0.8 (mg/mL) of CMP,2Na 0.4, 0.8 (mg/mL) of U:C=1:1 (mass ratio 1:1 mixture of UMP,2Na and CMP,2Na) 0.4, 0.8 (mg/mL) of U:C=4:1 (mass ratio 4:1 mixture of UMP,2Na and CMP,2Na) 0.4, and 0.8 (mg/mL) of U:C=1:4 (mass ratio 1:4 mixture of UMP,2Na and CMP,2Na) 0.4.
The culture supernatant of human keratinocytes was collected, and amounts of IL-1α, IL-6, and IL-8 were quantified by ELISA.

IL-8 [5] = experiment: Anti-inflammatory evaluation using UVB-irradiated three-dimensional cultured human epidermis, IL-8 by ELISA; type: cell-based; conditions: UVB 600 mJ/cm^2, tested 0.125-1.0 w/v %, FIG. 6
Method: (§2) To reproduce the phenomenon that occurs in actual epidermis, three-dimensional cultured human epidermis was used to evaluate the suppression effect of cytidylic acid on inflammatory cytokines induced by UV irradiation. In addition, to verify the relationship between the amount of cytidylic acid and the suppression effect on inflammatory cytokine production, the effects of varying the amount of cytidylic acid were evaluated.
(§3) Three-dimensional cultured human epidermis (LabCyte EPI MODEL 24; manufactured by J TEC) was set in a 24-well plate to which 500 μL of the attached assay medium was added, and acclimated overnight at 37° C. 50 μL of sample-containing PBS (−) was applied from the stratum corneum side and cultured for 24 hours. After removing the sample-containing PBS (−), the plate was washed with PBS (−) and irradiated with 600 mJ/cm^2 using a UVB lamp (TL20W/12RS; manufactured by PHILIPS). The medium was replaced with a fresh medium, 50 μL of sample-containing PBS (−) was newly applied from the stratum corneum side, and further cultured for 48 hours. After culturing, the culture supernatant was collected. The concentrations of cytidylic acid in the respective samples were 0, 0.125, 0.25, 0.5, and 1.0 (w/v %), respectively. Each inflammatory cytokine contained in the supernatant was quantified by ELISA.

IL-6 [6] = experiment: Anti-inflammatory evaluation using UVB-irradiated three-dimensional cultured human epidermis, IL-6 by ELISA; type: cell-based; conditions: UVB 600 mJ/cm^2, tested 0.125-1.0 w/v %, FIG. 5
Method: as §2, §3

IL-1α [7] = experiment: Anti-inflammatory evaluation using UVB-irradiated three-dimensional cultured human epidermis, IL-1α by ELISA; type: cell-based; conditions: UVB 600 mJ/cm^2, tested 0.125-1.0 w/v %, FIG. 4
Method: as §2, §3

[8] = UVB 20 mJ/cm^2, significant difference between uridylic acid and cytidylic acid

| Structure (SMILES) | concentration dependence of the inhibitory effect on IL-8 (IL-8 [1]) | amount of IL-8 produced (IL-8 [1]) | concentration dependence of the inhibitory effect on IL-6 (IL-6 [2]) | amount of IL-6 produced (IL-6 [2]) | concentration dependence of the inhibitory effect on IL-1α (IL-1α [3]) | amount of IL-1α produced (IL-1α [3]) | effect of inhibiting inflammatory cytokine production, compared with cytidylic acid and uridylic acid [4] | concentration at which a significant IL-8 production inhibitory effect was observed (IL-8 [5]) [%] | effect of inhibiting IL-8 production, compared with uridylic acid (IL-8 [1]; [8]) | concentration at which a significant IL-6 production inhibitory effect was observed (IL-6 [6]) [%] | effect of inhibiting IL-6 production, compared with uridylic acid (IL-6 [2]; [8]) | concentration at which a significant IL-1α production inhibitory effect was observed (IL-1α [7]) [%] |
| --- | --- | --- | --- | --- | --- | --- | --- | --- | --- | --- | --- | --- |
| O=c1ccn([C@@H]2O[C@H](COP(=O)(O)O)[C@@H](O)[C@H]2O)c(=O)[nH]1 [uridylic acid] | increased the inhibitory effect in a concentration-dependent manner | suppressed the amount of IL-8 produced | increased the inhibitory effect in a concentration-dependent manner | suppressed the amount of IL-6 produced | increased the inhibitory effect in a concentration-dependent manner | suppressed the amount of IL-1α produced | – | – | – | – | – | – |
| Nc1ncnc2c1ncn2[C@@H]1O[C@H](COP(=O)(O)O)[C@@H](O)[C@H]1O [adenylic acid] | – | – | – | – | – | – | only a lower effect of inhibiting inflammatory cytokine production than cytidylic acid and uridylic acid | – | – | – | – | – |
| Nc1nc2c(ncn2[C@@H]2O[C@H](COP(=O)(O)O)[C@@H](O)[C@H]2O)c(=O)[nH]1 [guanylic acid] | – | – | – | – | – | – | only a lower effect of inhibiting inflammatory cytokine production than cytidylic acid and uridylic acid | – | – | – | – | – |
| Nc1ccn([C@@H]2O[C@H](COP(=O)(O)O)[C@@H](O)[C@H]2O)c(=O)n1 [cytidylic acid] | increased the inhibitory effect in a concentration-dependent manner | suppressed the amount of IL-8 produced | increased the inhibitory effect in a concentration-dependent manner | suppressed the amount of IL-6 produced | increased the inhibitory effect in a concentration-dependent manner | suppressed the amount of IL-1α produced | – | ≥ 0.125 | particularly remarkable effect of inhibiting IL-8 production | ≥ 0.125 | particularly remarkable effect of inhibiting IL-6 production | ≥ 0.25 |
